Series [1] relates to platelet aggregation. Nature of the series: animal or person. To be noted: Rattus norvegicus, read-out: Aggregation inhibition (%). Format: in vivo. The source says:
The positive control and the test compounds (prepared in the above examples) were formulated in 0.5% CMC-Na (carboxymethylcellulose sodium) into suspensions for administration to animals.
Animals: male SD rats, weighed about 250 g, and supplied by Shanghai Super-B&K Laboratory Animal Corp. Ltd. Animal certificate No.: 2008001605451, and license No.: SCXK (Hu); SCXK (Hu) 2008-0016.
Instruments: a centrifuge (80-2 bench top low-speed centrifuge), an automatic platelet aggregation tester (STELLEXLG-PAPER-I platelet coagulation/aggregation analyzer), and others.
Methods: the pharmacological activity test of the compounds of the present invention for platelet aggregation was performed following Born's turbidimetric method (Nature, 1962, 194(4832): 927). An agglomeration-promoting substance, adenosine diphosphate (ADP), was added to a platelet rich plasma (PRP), and stirred to allow platelets to aggregate. […] This experiment can be used to evaluate the platelet aggregation effect induced by the test compounds administrated in-vivo or in-vitro.
The PRP was adjusted with a platelet poor plasma (PPP) to maintain the platelet counts at […]. The PRP was taken into a test cup, and incubated at 37° C. for 10 min. Light transmission was adjusted to 0% with PRP and to 100% with PPP for each measurement. By using ADP (with a final concentration of 5 μM) as an inducer, the platelet aggregation percentages were measured through the turbidimetric method using a platelet aggregation tester, and statistically compared by t-test. The platelet aggregation inhibition was calculated by the equation: platelet aggregation inhibition (%)=[1−(aggregation percent in dosed tube/aggregation percent in control tube)]×100%.

In series [2] the target is human carboxylesterase 1 (hCE1) (Homo sapiens, UniProt P23141). To be noted: in vivo, J Pharmacol Exp Ther, 2006, 319: 1467; cited from earlier work.
Chain of human carboxylesterase 1 (hCE1) (P23141 18-567): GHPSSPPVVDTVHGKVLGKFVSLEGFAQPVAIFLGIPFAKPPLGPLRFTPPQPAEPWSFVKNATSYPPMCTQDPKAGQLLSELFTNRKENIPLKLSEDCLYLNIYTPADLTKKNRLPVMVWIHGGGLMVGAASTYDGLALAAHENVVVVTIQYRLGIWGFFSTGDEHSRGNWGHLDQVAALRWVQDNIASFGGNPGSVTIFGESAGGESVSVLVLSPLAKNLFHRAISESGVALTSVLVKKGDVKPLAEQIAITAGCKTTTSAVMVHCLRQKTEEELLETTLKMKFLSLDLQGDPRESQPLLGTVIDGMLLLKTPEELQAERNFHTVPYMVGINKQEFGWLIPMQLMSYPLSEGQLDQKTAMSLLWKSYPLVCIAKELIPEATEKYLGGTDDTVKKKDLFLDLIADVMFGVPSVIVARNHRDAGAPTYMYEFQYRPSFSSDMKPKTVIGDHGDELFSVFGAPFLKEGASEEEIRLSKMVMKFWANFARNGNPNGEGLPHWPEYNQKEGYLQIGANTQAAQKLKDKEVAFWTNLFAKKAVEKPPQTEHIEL
Where [3] appears, read: male SD rats, oral gavage 3 mg/kg, blood after 2 hrs, ADP 5 μM.

Where two headings read alike, the source gives them in different places.

Here are results for 4 molecules from patent US8772489B2, “Optically active 2-hydroxy tetrahydrothienopyridine derivatives, preparation method and use in manufacture of medicament thereof” (Jiangsu Vcare PharmaTech Co. Ltd., priority 2010, dated 2014).

In general, melting point refers to the temperature of the solid-liquid transition. As usually defined, the inhibition is the relative decrease from the control value, in per cent.

In turn, `COC(=O)[C@H](c1ccccc1Cl)N1CCc2sc(OC(=O)COc3ccccc3)cc2C1` [Compound I-13, (S)-Methyl 2-(2-(phenoxyacetoxy)-6,7-dihydrothieno[3,2-c]pyridin-5(4H)-yl)-2-(2-chlorophenyl)-acetate] came in with a melting point of 104 to 106 °C. Moreover, in series [1] (setting [3]), the inhibition at 3 mg/kg was 10.1%. The like results for `CCOC(=O)Oc1cc2c(s1)CCN([C@H](C(=O)OC)c1ccccc1Cl)C2` [Compound I-14, (S)-Methyl 2-(2-(ethoxycarbonyloxy)-6,7-dihydrothieno[3,2-c]pyridin-5(4H)-yl)-2-(2-chlorophenyl)-acetate] were, in that order, 42 to 44 °C and 62.9%. Take `COC(=O)[C@H](c1ccccc1Cl)N1CCc2sc(OC(=O)N(C)C)cc2C1` [Compound I-18, (S)-Methyl 2-(2-(N,N-dimethylcarbamoyloxy)-6,7-dihydrothieno[3,2-c]pyridin-5(4H)-yl)-2-(2-chlorophenyl)-acetate]: the melting point is 96 to 98 °C. In addition, the inhibition at 3 mg/kg in series [1] (po, 2 h) was 48.2%. For the molecule `COC(=O)[C@H](c1ccccc1Cl)N1CCc2sccc2C1` [clopidogrel], in series [2], the “share of the prototype drug hydrolyzed by hCE1 in the liver into an inactive carboxylic derivative” value was 85%.
